Data from patent US20020032226A1, “Novel form of an oxazole compound” (priority 2000, published 2002).

What was measured:
[1] = heat stability to withstand spray drying; format: physicochemical; conditions: temperature range of from about 40° C. to about 100° C.
COX-2 = target: T1, COX-2 (Homo sapiens, UniProt P35354); assay: in vitro activity of COX-2; format: biochemical
T1 sequence (P35354 18-604): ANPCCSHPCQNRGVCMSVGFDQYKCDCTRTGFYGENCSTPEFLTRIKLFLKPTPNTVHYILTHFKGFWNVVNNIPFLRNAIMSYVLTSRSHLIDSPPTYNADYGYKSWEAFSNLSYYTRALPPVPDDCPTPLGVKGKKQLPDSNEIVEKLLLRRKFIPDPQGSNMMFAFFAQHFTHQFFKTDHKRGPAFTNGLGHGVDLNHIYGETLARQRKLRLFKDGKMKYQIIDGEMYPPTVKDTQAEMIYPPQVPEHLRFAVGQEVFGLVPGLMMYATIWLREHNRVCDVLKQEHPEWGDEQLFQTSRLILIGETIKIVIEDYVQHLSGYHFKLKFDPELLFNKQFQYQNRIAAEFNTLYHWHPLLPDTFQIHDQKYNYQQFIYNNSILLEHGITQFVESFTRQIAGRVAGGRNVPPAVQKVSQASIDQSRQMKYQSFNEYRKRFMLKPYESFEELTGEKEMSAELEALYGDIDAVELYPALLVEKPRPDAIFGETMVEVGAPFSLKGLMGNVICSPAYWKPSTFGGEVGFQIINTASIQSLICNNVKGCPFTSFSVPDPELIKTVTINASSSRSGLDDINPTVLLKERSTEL

[2] = Comparative dissolution of crystalline Form B and amorphous compound; format: physicochemical; conditions: 150 mg in 900 mL, 37° C., paddle speed 100 rpm, particle size 212-425 μm, HPLC
Description: Dissolution rates for the crystalline compound having Form B and the amorphous compound were determined and compared in two media: water and simulated intestinal fluid (SIF) minus pancreatin.
Initial materials were sieved and material with a particle size between 212 and 425 μm was used for the study. A 150 mg sample was added to 900 mL of fluid in a dissolution bath. A temperature of 37° C. and a paddle speed of 100 rpm were used for the dissolution. Samples were pulled at specific time points (5, 15, 30 120, and 240 min) and filtered through a 0.2 μm nylon filter. Samples were analyzed by HPLC.

For `Cc1nc(C2CCCCC2)c(-c2ccc(S(N)(=O)=O)c(F)c2)o1` [5-(4-aminosulfonyl-3-fluorophenyl)-4-cyclohexyl-2-methyloxazole], the heat stability [1] was “sufficient heat stability”.

In the case of `Cc1nc(C2CCCCC2)c(-c2ccc(S(N)(=O)=O)c(F)c2)o1` [amorphous compound, 5-(4-aminosulfonyl-3-fluorophenyl)-4-cyclohexyl-2-methyloxazole], the “inhibits in vitro activity of COX-2” value (COX-2) is reported as “nanomolar range”, the “dissolution rate in simulated intestinal fluid (SIF) minus pancreatin” value [2] is reported as “dissolved more rapidly” and the “dissolution rate in water” value [2] is reported as “dissolved more rapidly”.

In the case of `Cc1nc(C2CCCCC2)c(-c2ccc(S(N)(=O)=O)c(F)c2)o1` [crystalline compound having Form B, 5-(4-aminosulfonyl-3-fluorophenyl)-4-cyclohexyl-2-methyloxazole], the “dissolution rate in simulated intestinal fluid (SIF) minus pancreatin” value [2] is reported as “significantly slower dissolution rate than the amorphous form” and the “dissolution rate in water” value [2] is reported as “significantly slower dissolution rate than the amorphous form”.
